Measurements as given in the supplement of paper PMC10307832.

Assays:
Experiment in all cases: relative viability (nuclei count vs DMSO), 5 days (fraction); higher = more cells survive
Ibrutinib + Trametinib = compound: C=CC(=O)N1CCC[C@@H](n2nc(-c3ccc(Oc4ccccc4)cc3)c3c(N)ncnc32)C1 [Ibrutinib] + CC(=O)Nc1cccc(-n2c(=O)n(C3CC3)c(=O)c3c(Nc4ccc(I)cc4F)n(C)c(=O)c(C)c32)c1 [Trametinib] (partner 0.02 µM)
Procedure, shortened: (§1)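 Relative viability divides the nuclei count in treated wells by that in vehicle wells. Lung cancer cell lines were seeded in 1536-well plates, dosed by pin tool the next day, and fixed and stained after 5 days in one step with final 0.05% Triton X-100, 1% formaldehyde and 1 ug/ml Hoechst. Dosing was a single drug or a fixed anchor-drug dose plus five library-drug doses (not always all listed) in √10 steps, and values are medians of duplicate plates imaged at 4×.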

Ibrutinib + Crizotinib = compound: C=CC(=O)N1CCC[C@@H](n2nc(-c3ccc(Oc4ccccc4)cc3)c3c(N)ncnc32)C1 [Ibrutinib] + C[C@@H](Oc1cc(-c2cnn(C3CCNCC3)c2)cnc1N)c1c(Cl)ccc(F)c1Cl [Crizotinib] (partner 1 µM)
Procedure, shortened: as §1

BMX-IN-1 + Crizotinib = compound: C=CC(=O)Nc1cc(-n2c(=O)ccc3cnc4ccc(-c5ccc(NS(C)(=O)=O)cc5)cc4c32)ccc1C [BMX-IN-1] + C[C@@H](Oc1cc(-c2cnn(C3CCNCC3)c2)cnc1N)c1c(Cl)ccc(F)c1Cl [Crizotinib] (partner 1 µM)
Procedure, shortened: as §1

BMX-IN-1 + Decitabine = compound: C=CC(=O)Nc1cc(-n2c(=O)ccc3cnc4ccc(-c5ccc(NS(C)(=O)=O)cc5)cc4c32)ccc1C [BMX-IN-1] + Nc1ncn([C@H]2C[C@H](O)[C@@H](CO)O2)c(=O)n1 [Decitabine] (partner 2 µM)
Procedure, shortened: as §1

Cell Line	relative viability (Ibrutinib + Trametinib; first compound 0.005 µM)	relative viability (Ibrutinib + Trametinib; first compound 0.01581 µM)	relative viability (Ibrutinib + Trametinib; first compound 0.05 µM)	relative viability (Ibrutinib + Trametinib; first compound 0.1581 µM)	relative viability (Ibrutinib + Trametinib; first compound 0.5 µM)	relative viability (Ibrutinib + Crizotinib; first compound 0.005 µM)	relative viability (Ibrutinib + Crizotinib; first compound 0.01581 µM)	relative viability (Ibrutinib + Crizotinib; first compound 0.05 µM)	relative viability (Ibrutinib + Crizotinib; first compound 0.1581 µM)	relative viability (Ibrutinib + Crizotinib; first compound 0.5 µM)	relative viability (BMX-IN-1 + Crizotinib; first compound 0.02 µM)	relative viability (BMX-IN-1 + Crizotinib; first compound 0.2 µM)	relative viability (BMX-IN-1 + Crizotinib; first compound 0.6325 µM)	relative viability (BMX-IN-1 + Crizotinib; first compound 2 µM)	relative viability (BMX-IN-1 + Decitabine; first compound 0.02 µM)	relative viability (BMX-IN-1 + Decitabine; first compound 0.2 µM)	relative viability (BMX-IN-1 + Decitabine; first compound 0.6325 µM)	relative viability (BMX-IN-1 + Decitabine; first compound 2 µM)
201T	0.721	0.708	0.695	0.712	0.683	1.03	1.02	1.03	1.04	1.04	1.03	1.05	1.09	1.05	0.819	0.847	0.864	0.918
A549	–	–	–	–	–	0.814	0.649	0.639	0.708	0.661	0.986	1.22	0.945	0.738	0.289	0.115	0.284	0.293
A-427	0.654	0.777	0.782	–	0.694	0.89	0.87	1.03	0.875	0.832	0.966	0.903	1.09	0.887	0.544	0.554	0.559	0.551
ABC-1	–	–	–	–	–	1.21	1.03	1.57	1.56	1.03	1.22	1.27	0.69	0.904	1.22	1.31	1.15	1.16
BEN	0.897	–	1.06	0.974	0.794	0.952	0.962	0.803	0.67	0.943	1.25	1.05	0.537	0.901	0.7	0.755	0.792	0.674
CAL-12T	0.236	0.297	0.3	0.382	0.298	–	0.589	0.582	0.718	0.301	0.798	0.827	0.618	0.562	–	–	–	–
COR-L23	0.393	0.574	0.621	0.647	0.756	0.707	0.641	0.693	0.644	0.653	0.942	0.641	0.864	0.767	0.467	0.45	0.484	0.438
COR-L 105	0.381	0.384	0.407	0.419	0.339	0.654	0.846	0.472	0.9	0.235	0.832	0.892	0.727	0.583	0.563	0.671	0.654	0.672
Calu-6	–	–	–	–	–	0.911	0.576	0.802	0.723	0.872	0.925	0.886	0.927	0.988	–	–	–	–
ChaGo-K-1	0.907	0.879	0.922	0.857	0.854	1.18	1.05	1.16	–	1.06	1.39	1.07	1.18	1.17	0.512	0.549	0.551	0.519
EBC-1	–	–	–	–	–	0.199	0.21	0.205	0.188	0.162	0.195	0.202	0.162	0.197	–	–	–	–
EKVX	0.322	0.343	0.392	–	0.215	0.995	0.743	1.05	0.964	0.562	1.18	1.29	0.882	1.01	0.333	0.281	0.617	0.381
EMC-BAC-2	0.836	0.895	–	–	1.03	0.79	0.679	0.731	0.813	0.726	0.858	0.877	0.797	0.718	0.95	0.993	1.1	1.03
EPLC-272H	–	0.293	0.311	0.277	0.243	–	0.806	0.809	1.06	0.522	1.04	0.968	0.96	0.96	0.29	0.397	0.407	0.355
H3255	0.461	0.531	–	0.624	0.378	0.873	0.81	0.729	0.874	0.429	0.969	1.11	0.968	0.924	0.784	0.631	0.812	0.694
HARA	0.719	0.633	0.638	0.78	0.262	1.16	0.913	1.03	1.08	0.883	1.39	1.24	1.16	1.09	0.752	0.575	0.664	0.704
HCC-15	0.387	0.367	0.419	0.432	0.365	0.889	0.785	0.873	0.828	0.837	0.991	0.945	0.953	0.762	0.721	0.651	0.652	0.713
